One assay concerns the target T1, IRAK4 (Homo sapiens, UniProt Q9NWZ3).
T1 construct: purchased Thermo Fisher Scientific SelectScreen
As to the kind of experiment: SelectScreen kinase panel, Z′-LYTE kinase assay. It is filed as biochemical. The following applies: read-out: Inhibition percentage at 1 μM. How it is done: (§1) Kinase panel screening was carried out using the SelectScreen Kinase Assay (Thermo Fisher Scientific, Waltham, MA, USA). Three complementary assay formats were applied: the Z′-LYTE kinase assay, LanthaScreen Eu kinase binding assay, and Adapta Universal kinase assay. The kinases selected for this study and the corresponding assay formats are summarised in Supplementary Table S1.
(§2) The Z′-LYTE Kinase Assay (Thermo Fisher Scientific, Waltham, MA, USA) was used to evaluate selected kinases’ activity, according to the manufacturer’s instructions (https://www.thermofisher.com/tw/zt/home/industrial/pharma-biopharma/drug-discovery-development/target-and-lead-identification-and-validation/kinasebiology/kinase-activity-assays/z-lyte/z-lyte-reactivity-table.html). This endpoint assay quantifies kinase activity by detecting peptide substrate phosphorylation. Briefly, a 2× mixture of selected kinase and relevant substrate was prepared in kinase buffer (0.01% polyoxyethylene lauryl ether (BRIJ-35), 50 mM 4-(2-hydroxyethyl)-1-piperazineethanesulfonic acid (HEPES), pH 7.5, 1 mM ethylene glycol-bis(β-aminoethyl ether)-N,N,N′,N′-tetraacetic acid (EGTA), and 10 mM MgCl2). After 1 h incubation at room temperature, 5 μl of 1:128 diluted development reagent solution was added, followed by an additional 1 h incubation. Fluorescence was recorded using a multimode plate reader.

For a further assay, the target named is T2, MKNK1 (MNK1) (Homo sapiens, UniProt Q9BUB5).
T2 construct: purchased Thermo Fisher Scientific SelectScreen
T2 sequence (Q9BUB5 whole entry): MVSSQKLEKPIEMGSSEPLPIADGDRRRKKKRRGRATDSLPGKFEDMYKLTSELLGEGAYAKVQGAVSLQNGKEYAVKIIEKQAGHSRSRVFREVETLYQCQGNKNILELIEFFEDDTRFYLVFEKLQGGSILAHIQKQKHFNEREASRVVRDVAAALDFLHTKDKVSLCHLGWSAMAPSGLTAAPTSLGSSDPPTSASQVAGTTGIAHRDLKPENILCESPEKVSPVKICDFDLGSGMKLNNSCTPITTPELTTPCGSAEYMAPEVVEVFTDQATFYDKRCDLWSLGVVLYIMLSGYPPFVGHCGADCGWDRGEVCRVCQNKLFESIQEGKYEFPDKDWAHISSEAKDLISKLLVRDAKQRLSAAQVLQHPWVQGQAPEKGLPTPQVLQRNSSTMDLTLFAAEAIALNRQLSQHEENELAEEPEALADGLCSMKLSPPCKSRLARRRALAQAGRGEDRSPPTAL
As to the kind of experiment: SelectScreen kinase panel, Z′-LYTE kinase assay. It is filed as biochemical. As to conditions: read-out: Inhibition percentage at 1 μM. On the procedure: as §1, §2

In the next assay the target is T3, AKT1 (PKB alpha) (Homo sapiens, UniProt P31749).
T3 construct: purchased Thermo Fisher Scientific SelectScreen
T3 sequence (P31749 whole entry): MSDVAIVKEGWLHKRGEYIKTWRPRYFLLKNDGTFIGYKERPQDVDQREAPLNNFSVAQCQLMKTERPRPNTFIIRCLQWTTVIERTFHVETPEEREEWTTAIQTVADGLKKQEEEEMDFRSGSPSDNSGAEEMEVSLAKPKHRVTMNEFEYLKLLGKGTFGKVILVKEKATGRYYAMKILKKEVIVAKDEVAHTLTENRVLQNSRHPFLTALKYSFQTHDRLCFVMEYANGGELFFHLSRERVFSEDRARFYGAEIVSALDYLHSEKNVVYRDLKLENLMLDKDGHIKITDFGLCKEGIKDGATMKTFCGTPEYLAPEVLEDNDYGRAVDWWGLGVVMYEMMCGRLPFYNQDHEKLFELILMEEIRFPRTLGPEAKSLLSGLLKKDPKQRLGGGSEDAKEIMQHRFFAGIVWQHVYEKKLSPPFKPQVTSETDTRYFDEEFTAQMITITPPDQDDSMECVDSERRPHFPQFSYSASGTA
As to the kind of experiment: SelectScreen kinase panel, Z′-LYTE kinase assay. As to conditions: read-out: Inhibition percentage at 1 μM. Format: biochemical. On the procedure:
as §1, §2

The target in the next assay is T4, NEK1 (Homo sapiens, UniProt Q96PY6).
T4 construct: purchased Thermo Fisher Scientific SelectScreen
As to the kind of experiment: SelectScreen kinase panel, Z′-LYTE kinase assay. The following applies: read-out: Inhibition percentage at 1 μM. It is filed as biochemical. On the procedure:
as §1, §2

A further assay deals with T5, MAPK3 (ERK1) (Homo sapiens, UniProt P27361).
T5 construct: purchased Thermo Fisher Scientific SelectScreen
As to the kind of experiment: SelectScreen kinase panel, Z′-LYTE kinase assay. Format: biochemical. The following applies: read-out: Inhibition percentage at 1 μM. How it is done:
as §1, §2

Another assay addresses T6, ROCK1 (Homo sapiens, UniProt Q13464).
T6 construct: purchased Thermo Fisher Scientific SelectScreen
As to the kind of experiment: SelectScreen kinase panel, Z′-LYTE kinase assay. As to conditions: read-out: Inhibition percentage at 1 μM. Format: biochemical. On the procedure:
as §1, §2

The target of a further assay is T7, DCAMKL1 (DCLK1) (Homo sapiens, UniProt O15075).
T7 construct: purchased Thermo Fisher Scientific SelectScreen
In words: SelectScreen kinase panel, Z′-LYTE kinase assay. Format: biochemical. The following applies: read-out: Inhibition percentage at 1 μM. How it is done:
as §1, §2

A further assay addresses T8, SRC (Homo sapiens, UniProt P12931).
T8 construct: purchased Thermo Fisher Scientific SelectScreen
As to the kind of experiment: SelectScreen kinase panel, Z′-LYTE kinase assay. Format: biochemical. The following applies: read-out: Inhibition percentage at 1 μM. How it is done: as §1, §2

A further assay concerns the target T9, PLK2 (Homo sapiens, UniProt Q9NYY3).
T9 construct: purchased Thermo Fisher Scientific SelectScreen
As to the kind of experiment: SelectScreen kinase panel, Z′-LYTE kinase assay. It is filed as biochemical. The following applies: read-out: Inhibition percentage at 1 μM. How it is done:
as §1, §2

The next assay addresses T10, HIPK1 (Myak) (Homo sapiens, UniProt Q86Z02).
T10 construct: purchased Thermo Fisher Scientific SelectScreen
As to the kind of experiment: SelectScreen kinase panel, Z′-LYTE kinase assay. The following applies: read-out: Inhibition percentage at 1 μM. Format: biochemical. On the procedure: as §1, §2

The next assay has as its target T11, CAMK2B (CaMKII beta) (Homo sapiens, UniProt Q13554).
T11 construct: purchased Thermo Fisher Scientific SelectScreen
In words: SelectScreen kinase panel, Z′-LYTE kinase assay. Format: biochemical. As to conditions: read-out: Inhibition percentage at 1 μM. How it is done: as §1, §2

The next assay addresses T12, CDK2/cyclin A (Homo sapiens, UniProt P24941).
T12 construct: purchased Thermo Fisher Scientific SelectScreen
As to the kind of experiment: SelectScreen kinase panel, Z′-LYTE kinase assay. The following applies: read-out: Inhibition percentage at 1 μM. Format: biochemical. How it is done:
as §1, §2

The target of the next assay is T13, PRKCA (PKC alpha) (Homo sapiens, UniProt P17252).
T13 construct: purchased Thermo Fisher Scientific SelectScreen
As to the kind of experiment: SelectScreen kinase panel, Z′-LYTE kinase assay. As to conditions: read-out: Inhibition percentage at 1 μM. It is filed as biochemical. On the procedure:
as §1, §2

Another assay concerns the target T14, CSNK1D (CK1 delta) (Homo sapiens, UniProt P48730).
T14 construct: purchased Thermo Fisher Scientific SelectScreen
In words: SelectScreen kinase panel, Z′-LYTE kinase assay. Format: biochemical. As to conditions: read-out: Inhibition percentage at 1 μM. On the procedure:
as §1, §2

The target of another assay is T15, MARK3 (Homo sapiens, UniProt P27448).
T15 construct: purchased Thermo Fisher Scientific SelectScreen
T15 sequence (P27448 whole entry): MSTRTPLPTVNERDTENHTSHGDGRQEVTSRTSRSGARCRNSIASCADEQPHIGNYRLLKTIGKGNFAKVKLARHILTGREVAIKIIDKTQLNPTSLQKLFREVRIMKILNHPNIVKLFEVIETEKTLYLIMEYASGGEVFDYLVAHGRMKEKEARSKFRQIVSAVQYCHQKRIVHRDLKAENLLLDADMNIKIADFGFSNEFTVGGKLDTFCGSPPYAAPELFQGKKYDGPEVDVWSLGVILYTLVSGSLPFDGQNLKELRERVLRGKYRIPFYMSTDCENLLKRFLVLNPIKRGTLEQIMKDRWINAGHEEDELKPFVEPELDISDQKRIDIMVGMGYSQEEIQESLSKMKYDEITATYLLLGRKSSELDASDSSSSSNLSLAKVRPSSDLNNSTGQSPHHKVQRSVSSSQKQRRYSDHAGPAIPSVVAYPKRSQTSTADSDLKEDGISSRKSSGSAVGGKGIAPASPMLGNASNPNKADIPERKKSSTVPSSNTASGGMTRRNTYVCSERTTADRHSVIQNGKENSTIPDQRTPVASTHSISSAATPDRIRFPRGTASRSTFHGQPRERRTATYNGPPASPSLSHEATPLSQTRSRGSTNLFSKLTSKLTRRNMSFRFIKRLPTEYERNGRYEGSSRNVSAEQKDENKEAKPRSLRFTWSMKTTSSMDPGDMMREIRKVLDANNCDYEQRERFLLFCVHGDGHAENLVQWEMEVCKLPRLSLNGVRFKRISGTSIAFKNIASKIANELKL
In words: SelectScreen kinase panel, Z′-LYTE kinase assay. It is filed as biochemical. As to conditions: read-out: Inhibition percentage at 1 μM. How it is done: as §1, §2

The next assay has as its target T16, DYRK1B (Homo sapiens, UniProt Q9Y463).
T16 construct: purchased Thermo Fisher Scientific SelectScreen
As to the kind of experiment: SelectScreen kinase panel, Z′-LYTE kinase assay. It is filed as biochemical. The following applies: read-out: Inhibition percentage at 1 μM. On the procedure:
as §1, §2

A further assay concerns the target T17, BTK (Homo sapiens, UniProt Q06187).
T17 construct: purchased Thermo Fisher Scientific SelectScreen
As to the kind of experiment: SelectScreen kinase panel, Z′-LYTE kinase assay. As to conditions: read-out: Inhibition percentage at 1 μM. It is filed as biochemical. How it is done: as §1, §2

The next assay concerns the target T18, AURKA (Aurora A) (Homo sapiens, UniProt O14965).
T18 construct: purchased Thermo Fisher Scientific SelectScreen
In words: SelectScreen kinase panel, Z′-LYTE kinase assay. It is filed as biochemical. The following applies: read-out: Inhibition percentage at 1 μM. How it is done: as §1, §2

The next assay addresses T19, DAPK1 (Homo sapiens, UniProt P53355).
T19 construct: purchased Thermo Fisher Scientific SelectScreen
In words: SelectScreen kinase panel, Adapta Universal kinase assay. The following applies: read-out: Inhibition percentage at 1 μM. Format: biochemical. How it is done:
Kinase panel screening was carried out using the SelectScreen Kinase Assay (Thermo Fisher Scientific, Waltham, MA, USA). Three complementary assay formats were applied: the Z′-LYTE kinase assay, LanthaScreen Eu kinase binding assay, and Adapta Universal kinase assay. The kinases selected for this study and the corresponding assay formats are summarised in Supplementary Table S1. The Adapta Universal Kinase Assay (Thermo Fisher Scientific, Waltham, MA, USA) was used to assess kinase activity. This homogeneous, fluorescence-based immunoassay quantifies kinase activity by detecting ADP produced during the enzymatic reaction, according to the manufacturer’s instructions (https://www.thermofisher.com/tw/zt/home/industrial/pharma-biopharma/drug-discovery-development/target-and-lead-identification-and-validation/kinasebiology/kinase-activity-assays/adapta-universal-kinase-assay.html).

Assay [1] deals with panel of 40 kinases from various families. In words: Kinase panel screening (SelectScreen), whole panel. As to conditions: all 40 kinases; 1 μM. It is filed as biochemical. On the procedure:
as §1
as §2, with “reader. […]” for “reader.”

The test system of the next assay is HCT-116. In words: Sulforhodamine B assay (cell proliferation). As to conditions: Homo sapiens, SRB assay, 72 h, mean ± SD. It is filed as cell-based. On the procedure:
(§3) Colorectal cell line, HCT-116, was purchased from the Bioresource Collection and Research Centre (BCRC, Hsinchu, Taiwan), while HT-29 was obtained from the American Type Culture Collection (ATCC, Manassas, VA, USA). Both cell lines were maintained in McCoy’s 5 A medium (with L-glutamine and 2.2 g/L NaHCO3, M4892, Sigma) supplemented with 10% foetal bovine serum (Corning Incorporated, NY, USA) and 1% penicillin–streptomycin–amphotericin B (100 unit/ml penicillin G, 0.1 mg/ml streptomycin sulphate, 0.25 μg/ml amphotericin B, Corning Incorporated, NY, USA). All cultures were maintained in a humidified incubator at 37 °C with 5% CO2.
(§4) Cells were seeded in 96-well plates at a density of 3 × 10^3 cells/well in 100 μl of culture medium and treated with compounds at the indicated concentrations for 72 h. After treatment, cells were fixed with 10% trichloroacetic acid for 20 min and washed with H2O. The cells were then stained with 0.4% sulforhodamine B (SRB) in 1% acetic acid for 20 min, followed by two washes with 1% acetic acid. After the well-dried, the protein-bound dye was dissolved in 100 µl of 10 mM Tris base solution, and the absorbance was measured at 515 nm using an ELISA reader (Molecular Device, Sunnyvale, CA, USA).
In general terms: Sulforhodamine B stains cellular protein and so reports cell mass.

The next assay relates to HT-29. As to the kind of experiment: Sulforhodamine B assay (cell proliferation). Format: cell-based. As to conditions: Homo sapiens, SRB assay, 72 h, mean ± SD. On the procedure:
as §3, §4

Data on 1 compound can be found in PMC12624955, “Exploring diarylheptanoid derivatives to target LIMK1 as potential agents against colorectal cancer” (Journal of Enzyme Inhibition and Medicinal Chemistry, 2025).

The term inhibition denotes the change of the read-out against control, counted positive when it falls. A word on the GI50: it is the concentration at which growth is held to half of that of the control.

T8 sequence (P12931 whole entry): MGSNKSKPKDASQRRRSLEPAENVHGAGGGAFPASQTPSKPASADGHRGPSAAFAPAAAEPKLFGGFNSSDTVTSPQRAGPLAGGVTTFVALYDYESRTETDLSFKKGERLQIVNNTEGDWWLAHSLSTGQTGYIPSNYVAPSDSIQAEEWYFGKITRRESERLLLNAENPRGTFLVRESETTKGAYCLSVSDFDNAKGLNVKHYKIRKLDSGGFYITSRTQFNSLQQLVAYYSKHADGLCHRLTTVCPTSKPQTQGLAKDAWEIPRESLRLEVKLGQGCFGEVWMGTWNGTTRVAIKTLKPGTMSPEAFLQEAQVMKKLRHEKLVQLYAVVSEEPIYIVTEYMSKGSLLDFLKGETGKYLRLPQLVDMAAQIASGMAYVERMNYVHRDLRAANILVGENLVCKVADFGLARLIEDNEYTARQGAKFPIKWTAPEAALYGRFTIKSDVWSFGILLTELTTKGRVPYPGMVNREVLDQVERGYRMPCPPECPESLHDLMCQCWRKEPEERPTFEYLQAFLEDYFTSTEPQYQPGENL
T18 sequence (O14965 whole entry): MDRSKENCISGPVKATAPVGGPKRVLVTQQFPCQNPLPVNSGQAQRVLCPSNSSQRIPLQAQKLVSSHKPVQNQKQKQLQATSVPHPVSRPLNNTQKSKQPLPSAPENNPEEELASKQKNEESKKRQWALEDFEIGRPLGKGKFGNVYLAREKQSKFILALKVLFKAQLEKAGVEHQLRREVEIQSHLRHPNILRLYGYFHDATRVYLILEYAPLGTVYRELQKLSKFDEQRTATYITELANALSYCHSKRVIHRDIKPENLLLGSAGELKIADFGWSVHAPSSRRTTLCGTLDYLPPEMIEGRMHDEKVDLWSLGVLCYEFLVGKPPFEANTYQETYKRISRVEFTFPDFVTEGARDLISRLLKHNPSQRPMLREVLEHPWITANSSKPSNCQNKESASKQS
T1 sequence (Q9NWZ3 whole entry): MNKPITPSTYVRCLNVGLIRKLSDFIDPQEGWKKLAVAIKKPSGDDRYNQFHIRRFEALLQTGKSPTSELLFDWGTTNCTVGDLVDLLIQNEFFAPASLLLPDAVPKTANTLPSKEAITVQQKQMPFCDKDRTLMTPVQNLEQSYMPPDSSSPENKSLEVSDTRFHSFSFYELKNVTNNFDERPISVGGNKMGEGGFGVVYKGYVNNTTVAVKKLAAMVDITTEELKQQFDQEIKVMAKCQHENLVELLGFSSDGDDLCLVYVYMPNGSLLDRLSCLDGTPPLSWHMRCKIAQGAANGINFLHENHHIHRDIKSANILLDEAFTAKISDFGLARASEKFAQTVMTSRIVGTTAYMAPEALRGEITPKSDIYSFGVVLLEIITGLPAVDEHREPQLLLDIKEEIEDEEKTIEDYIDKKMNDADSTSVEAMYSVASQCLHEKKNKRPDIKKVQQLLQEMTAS
T6 sequence (Q13464 whole entry): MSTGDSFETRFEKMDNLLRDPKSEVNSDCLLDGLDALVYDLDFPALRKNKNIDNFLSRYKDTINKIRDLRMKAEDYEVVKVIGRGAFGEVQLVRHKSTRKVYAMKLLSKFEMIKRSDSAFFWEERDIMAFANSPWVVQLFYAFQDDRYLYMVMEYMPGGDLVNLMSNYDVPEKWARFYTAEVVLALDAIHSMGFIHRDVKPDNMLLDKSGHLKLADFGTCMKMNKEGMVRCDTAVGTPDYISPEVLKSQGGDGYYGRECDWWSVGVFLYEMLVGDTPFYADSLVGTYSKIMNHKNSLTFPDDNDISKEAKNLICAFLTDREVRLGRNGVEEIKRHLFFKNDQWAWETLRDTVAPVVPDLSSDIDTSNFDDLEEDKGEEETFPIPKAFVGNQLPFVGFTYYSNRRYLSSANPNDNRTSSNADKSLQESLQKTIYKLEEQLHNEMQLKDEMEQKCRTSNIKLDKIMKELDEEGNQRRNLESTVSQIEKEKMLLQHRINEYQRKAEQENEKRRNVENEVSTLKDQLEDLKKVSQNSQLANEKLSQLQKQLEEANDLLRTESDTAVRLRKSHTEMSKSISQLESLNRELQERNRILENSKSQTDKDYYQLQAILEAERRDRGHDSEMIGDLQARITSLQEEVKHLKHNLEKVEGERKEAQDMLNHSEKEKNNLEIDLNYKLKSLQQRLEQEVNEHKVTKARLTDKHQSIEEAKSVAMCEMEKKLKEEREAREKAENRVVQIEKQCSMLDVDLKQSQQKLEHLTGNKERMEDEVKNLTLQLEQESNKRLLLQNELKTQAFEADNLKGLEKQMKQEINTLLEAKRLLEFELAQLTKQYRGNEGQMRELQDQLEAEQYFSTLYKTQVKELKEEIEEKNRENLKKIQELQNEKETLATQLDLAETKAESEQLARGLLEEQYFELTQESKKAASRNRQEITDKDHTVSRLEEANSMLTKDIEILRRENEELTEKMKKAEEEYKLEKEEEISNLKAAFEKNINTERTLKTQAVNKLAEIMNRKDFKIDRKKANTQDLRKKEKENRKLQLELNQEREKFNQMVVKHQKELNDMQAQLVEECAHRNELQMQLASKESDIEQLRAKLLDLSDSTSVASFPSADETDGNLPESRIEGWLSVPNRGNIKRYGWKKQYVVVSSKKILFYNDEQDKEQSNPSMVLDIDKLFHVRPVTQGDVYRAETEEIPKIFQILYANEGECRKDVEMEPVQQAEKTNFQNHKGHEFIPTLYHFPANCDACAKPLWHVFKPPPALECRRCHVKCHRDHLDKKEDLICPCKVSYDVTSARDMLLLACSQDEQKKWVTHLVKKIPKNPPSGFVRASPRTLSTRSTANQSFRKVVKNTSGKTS
T14 sequence (P48730 whole entry): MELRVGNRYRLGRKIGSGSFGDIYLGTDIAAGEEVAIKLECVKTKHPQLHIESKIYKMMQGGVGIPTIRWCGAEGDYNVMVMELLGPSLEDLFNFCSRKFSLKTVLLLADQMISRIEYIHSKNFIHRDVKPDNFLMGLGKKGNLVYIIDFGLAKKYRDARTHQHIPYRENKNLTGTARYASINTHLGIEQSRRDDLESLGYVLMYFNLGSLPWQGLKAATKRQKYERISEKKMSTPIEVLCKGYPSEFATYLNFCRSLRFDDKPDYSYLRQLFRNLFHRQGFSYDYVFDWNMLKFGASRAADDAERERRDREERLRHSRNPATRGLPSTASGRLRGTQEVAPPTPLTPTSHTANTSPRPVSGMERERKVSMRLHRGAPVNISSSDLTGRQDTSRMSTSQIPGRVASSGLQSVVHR

As for `O=C(/C=C/c1ccc(O)c(O)c1)CCCCn1ccc2c(O)cccc21` [Compound 13a, (E)-1-(3,4-dihydroxyphenyl)-7-(4-hydroxy-1H-indol-1-yl)hept-1-en-3-one], the inhibition at 1 µM was 4% at IRAK4; 8% on MKNK1 (MNK1); 2% at AKT1 (PKB alpha); -1% at NEK1; 6% on MAPK3 (ERK1); 10% at ROCK1. Besides, the inhibition at 1 µM at DCAMKL1 (DCLK1) was determined as 1%; on SRC it was 0%; at PLK2, 16%; at HIPK1 (Myak), 2%; at CAMK2B (CaMKII beta), 19%; at CDK2/cyclin A, 0%. For the same compound, the inhibition at 1 µM on PRKCA (PKC alpha) was 13%; at CSNK1D (CK1 delta), 7%; on MARK3, 6%; at DYRK1B, 4%; at BTK, 19%; at AURKA (Aurora A), 18%. Besides, the inhibition at 1 µM on DAPK1 was -15%. In addition, the “inhibition percentages across the panel of 40 kinases” value in [1] is given as “below 50%”. Besides, the GI50 amounted to 14.7 ± 0.8 µM with HCT-116 and 10.4 ± 0.6 µM in the assay on HT-29.
